In patent publication US20250026757A1, “Bicyclic Compounds for the Control of Invertebrate Pests” (BASF SE, priority 2021, published 2025):

How the values were obtained:
Type in all cases: in vivo
[1] = test system: Myzus persicae; test: Green peach aphid (Myzus persicae) systemic test, artificial diet in 96-well microtiter plates; settings: 72 h, adult aphids on treated diet, 3 days, read-out: mortality in comparison with untreated controls
From the text: B.1 Green Peach Aphid (Myzus persicae)
For evaluating control of green peach aphid (Myzus persicae) through systemic means, the test unit consisted of 96-well-microtiter plates containing liquid artificial diet under an artificial membrane.
The compounds were formulated using a solution containing 75% v/v water and 25% v/v DMSO. Different concentrations of formulated compounds were pipetted into the aphid diet, using a custom built pipetter, at two replications.
After application, 5-8 adult aphids were placed on the artificial membrane inside the microtiter plate wells. The aphids were then allowed to suck on the treated aphid diet and incubated at about 23±1° C. and about 50±5% relative humidity for 3 days. Aphid mortality and fecundity was then visually assessed.

[2] = test system: Anthonomus grandis; test: Boll weevil (Anthonomus grandis) test, eggs on insect diet in 96-well microtiter plates; settings: 120 h, egg and larval mortality, 5 days, read-out: mortality in comparison with untreated controls
Description: B.3 Boll Weevil (Anthonomus grandis)
For evaluating control of boll weevil (Anthonomus grandis), the test unit consisted of 96-well-microtiter plates containing an insect diet and 5-10 A. grandis eggs.
The compounds were formulated using a solution containing 75% v/v water and 25% v/v DMSO. Different concentrations of formulated compounds were sprayed onto the insect diet at 5 μl, using a custom-built micro atomizer, at two replications.
After application, microtiter plates were incubated at about 25±1° C. and about 75±5% relative humidity for 5 days. Egg and larval mortality was then visually assessed.

[3] = test system: Spodoptera eridania; test: Southern armyworm (Spodoptera eridania), 2nd instar larvae, foliar spray on lima bean plants; settings: 96 h, 2nd instar larvae on sprayed lima bean, 4 days after treatment, read-out: mortality in comparison with untreated controls
Description: B.4. Southern Armyworm (Spodoptera eridania), 2nd Instar Larvae
The active compounds were formulated by a Tecan liquid handler in 100% cyclohexanone as a 10,000-ppm solution supplied in tubes. The 10,000-ppm solution was serially diluted in 100% cyclohexanone to make interim solutions. These served as stock solutions for which final dilutions were made by the Tecan in 50% acetone:50% water (v/v) into 10 or 20 ml glass vials. A non-ionic surfactant (Kinetic®) was included in the solution at a volume of 0.01% (v/v). The vials were then inserted into an automated electrostatic sprayer equipped with an atomizing nozzle for application to plants/insects. Lima bean plants (variety Sieva) were grown 2 plants to a pot and selected for treatment at the 1st true leaf stage. Test solutions were sprayed onto the foliage by an automated electrostatic plant sprayer equipped with an atomizing spray nozzle. The plants were dried in the sprayer fume hood and then removed from the sprayer. Each pot was placed into perforated plastic bags with a zip closure. Ten to 11 armyworm larvae were placed into the bag and the bags zipped closed. Test plants were maintained in a growth room at about 25° C. and about 20-40% relative humidity for 4 days, avoiding direct exposure to fluorescent light (14:10 light:dark photoperiod) to prevent trapping of heat inside the bags. Mortality and reduced feeding were assessed 4 days after treatment, compared to untreated control plants.

[4] = test system: Aedes aegypti; test: whole plant or invertebrate; settings: 48 h, larval mortality, 2 days, read-out: mortality in comparison with untreated controls
Description: B.5 Yellow Fever Mosquito (Aedes aegypti)
For evaluating control of yellow fever mosquito (Aedes aegypti) the test unit consisted of 96-well-microtiter plates containing 200 μl of tap water per well and 5-15 freshly hatched A. aegypti larvae.
The active compounds were formulated using a solution containing 75% (v/v) water and 25% (v/v) DMSO. Different concentrations of formulated compounds or mixtures were sprayed onto the insect diet at 2.5 μl, using a custom-built micro atomizer, at two replications.
After application, microtiter plates were incubated at 28±1° C., 80±5% RH for 2 days. Larval mortality was then visually assessed.

[5] = test system: Heliothis virescens; test: Tobacco budworm (Heliothis virescens) test, eggs on insect diet in 96-well microtiter plates; settings: 120 h, egg and larval mortality, 5 days, read-out: mortality in comparison with untreated controls
Description: B.2 Tobacco Budworm (Heliothis virescens)
For evaluating control of tobacco budworm (Heliothis virescens), the test unit consisted of 96-well-microtiter plates containing an insect diet and 15-25 H. virescens eggs.
The compounds were formulated using a solution containing 75% v/v water and 25% v/v DMSO. Different concentrations of formulated compounds were sprayed onto the insect diet at 10 μl, using a custom-built micro atomizer, at two replications.
After application, microtiter plates were incubated at about 28±1° C. and about 80±5% relative humidity for 5 days. Egg and larval mortality was then visually assessed.

CCS(=O)(=O)c1cc(Br)cnc1-c1nc2cc(C(F)(F)F)n(C)n2c(=O)c1C [Compound I-16, 5-(5-bromo-3-ethylsulfonyl-2-pyridyl)-1,6-dimethyl-2-(trifluoromethyl)pyrazolo[1,5-a]pyrimidin-7-one]
≥ 75%: mortality at 2500 ppm [1] | mortality at 2500 ppm [2]

CCS(=O)(=O)c1cc(-c2ccc(OC(F)F)cc2)cnc1-c1cc(=O)n2c(cc(C(F)(F)F)n2C)n1 [Compound I-4, 5-[5-[4-(difluoromethoxy)phenyl]-3-ethylsulfonyl-2-pyridyl]-1-methyl-2-(trifluoromethyl)pyrazolo[1,5-a]pyrimidin-7-one]
≥ 75%: mortality at 2500 ppm [1] | mortality at 300 ppm [3] | mortality at 2500 ppm [4] | mortality at 2500 ppm [2] | mortality at 2500 ppm [5]

CCS(=O)(=O)c1cc(-c2ccc(F)cc2)cnc1-c1cc(=O)n2c(cc(C(F)(F)F)n2C)n1 [Compound I-3, 5-[3-ethylsulfonyl-5-(4-fluorophenyl)-2-pyridyl]-1-methyl-2-(trifluoro-methyl)pyrazolo[1,5-a]pyrimidin-7-one]
≥ 75%: mortality at 2500 ppm [1] | mortality at 300 ppm [3] | mortality at 2500 ppm [4] | mortality at 2500 ppm [2] | mortality at 2500 ppm [5]

CCS(=O)(=O)c1cc(Br)cnc1-c1cc(=O)n2c(cc(C(F)(F)F)n2C)n1 [Compound I-1, 5-(5-bromo-3-ethylsulfonyl-2-pyridyl)-1-methyl-2-(trifluoromethyl)pyrazolo[1,5-a]pyrimidin-7-one]
≥ 75%: mortality at 2500 ppm [1] | mortality at 2500 ppm [4] | mortality at 2500 ppm [2] | mortality at 2500 ppm [5]

CCS(=O)(=O)c1cc(Br)ccc1-c1cc(=O)n2c(cc(C(F)(F)F)n2C)n1 [Compound I-7, 5-(4-bromo-2-ethylsulfonyl-phenyl)-1-methyl-2-(trifluoromethyl)pyrazolo[1,5-a]pyrimidin-7-one]
≥ 75%: mortality at 2500 ppm [1] | mortality at 300 ppm [3] | mortality at 2500 ppm [4]

CCS(=O)(=O)c1cc(N=S(C)(C)=O)cnc1-c1cc(=O)n2c(cc(C(F)(F)F)n2C)n1 [Compound I-2, 5-[5-[[dimethyl(oxo)-λ6-sulfanylidene]amino]-3-ethylsulfonyl-2-pyridyl]-1-methyl-2-(trifluoromethyl)pyrazolo[1,5-a]pyrimidin-7-one]
≥ 75%: mortality at 2500 ppm [1] | mortality at 2500 ppm [4] | mortality at 2500 ppm [2]
